Source: patent US10308644B2, “Heterocyclic compounds as immunomodulators” (Incyte Corporation, priority 2016, dated 2019)

These compounds were tested against PD-1/PD-L1 (Homo sapiens (Human), UniProt Q9NZQ7) (assay: PD-1/PD-L1 Homogeneous Time-Resolved Fluorescence (HTRF) Binding Assay). Conditions: recombinant human PD-1 (3 nM) and PD-L1 (10 nM), 25° C., PBS pH 7.4.
Method in brief: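 Fc-tagged human PD-1 (25-167, 3 nM) and His-tagged PD-L1 (19-238, 10 nM) preincubated with inhibitor 40 min in PBS pH 7.4, 0.05% Tween-20, 0.1% BSA, 1% DMSO, 25 °C. Binding detected by HTRF (Eu anti-IgG/APC anti-His, 665/620 nm) after 60 min; IC50 from percent control activity.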

PD-1/PD-L1, sequence (Q9NZQ7 19-238): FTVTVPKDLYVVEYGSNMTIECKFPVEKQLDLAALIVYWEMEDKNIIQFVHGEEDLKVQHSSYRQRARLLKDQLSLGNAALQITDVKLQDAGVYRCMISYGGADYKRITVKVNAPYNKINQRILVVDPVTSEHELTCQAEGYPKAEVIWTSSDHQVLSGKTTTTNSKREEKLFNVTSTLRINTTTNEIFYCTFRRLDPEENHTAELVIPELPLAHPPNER

IC50, ≤ 10 nM:
Cc1c(-c2nc3cc(CN4CC[C@@H](O)C4)cc(C#N)c3o2)cccc1-c1cccc(NC(=O)c2nc3c(n2C)CCN(C[C@H]2CC[C@H](C(=O)O)CC2)C3)c1Cl [Example 261, trans-4-((2-(2-chloro-3′-(7-cyano-5-(((R)-3-hydroxypyrrolidin-1-yl)methyl)benzo[d]oxazol-2-yl)-2′-methylbiphenyl-3-ylcarbamoyl)-1-methyl-6,7-dihydro-1H-imidazo[4,5-c]pyridin-5 (4H)-yl)methyl)cyclohexanecarboxylic acid]
Cc1c(-c2nc3cc(CNCCO)cc(Cl)c3o2)cccc1-c1cccc(NC(=O)c2nc3c(s2)CN(C)CC3)c1Cl [Example 9, N-(2-chloro-3′-(7-chloro-5-(((2-hydroxyethyl)amino)methyl)benzo[d]oxazol-2-yl)-2′-methyl-[1,1′-biphenyl]-3-yl)-5-methyl-4,5,6,7-tetrahydrothiazolo[5,4-c]pyridine-2-carboxamide]
Cc1c(-c2nc3cc(CN4CC[C@@H](C(=O)O)C4)cc(Cl)c3o2)cccc1-c1cccc(-c2nc3c(s2)CN(C(C)C)CC3)c1C [Example 59, (R)-1-((7-chloro-2-(3′-(5-isopropyl-4,5,6,7-tetrahydrothiazolo[5,4-c]pyridin-2-yl)-2,2′-dimethyl-[1,1′-biphenyl]-3-yl)benzo[d]oxazol-5-yl)methyl)pyrrolidine-3-carboxylic acid]
Cc1c(-c2nc3cc(CN4CC[C@@](C)(C(=O)O)C4)cc(C#N)c3o2)cccc1-c1cccc(-c2nc3c(s2)CN(C(=O)CN2CC(O)C2)C3)c1C [Example 227, (R)-1-((7-cyano-2-(3′-(5-(2-(3-hydroxyazetidin-1-yl)acetyl)-5,6-dihydro-4H-pyrrolo[3,4-d]thiazol-2-yl)-2,2′-dimethylbiphenyl-3-yl)benzo[d]oxazol-5-yl)methyl)-3-methylpyrrolidine-3-carboxylic acid]
Cc1c(-c2nc3cc(CN[C@@H](C)C(=O)O)cc(C#N)c3o2)cccc1-c1cccc(NC(=O)c2nc3c(n2C)CCN(C)C3)c1Cl [Example 90, (S)-2-((2-(2′-chloro-3′-(1,5-dimethyl-4,5,6,7-tetrahydro-1H-imidazo[4,5-c]pyridine-2-carboxamido)-2-methylbiphenyl-3-yl)-7-cyanobenzo[d]oxazol-5-yl)methylamino)propanoic acid]
Cc1c(-c2nc3cc(CN4CC[C@@H](C(=O)O)C4)cc(C#N)c3o2)cccc1-c1cccc(-c2nc3c(s2)CN(C(=O)CN(C)C)C3)c1C [Example 105, (R)-1-((7-cyano-2-(3′-(5-(2-(dimethylamino)acetyl)-5,6-dihydro-4H-pyrrolo[3,4-d]thiazol-2-yl)-2,2′-dimethylbiphenyl-3-yl)benzo[d]oxazol-5-yl)methyl)pyrrolidine-3-carboxylic acid]
Cc1c(Nc2nccc3cc(CN4CC[C@@H](O)C4)cnc23)cccc1-c1cccc(-c2nc3cc(CN[C@H]4CC[C@@H](C(=O)O)C4)cc(C#N)c3o2)c1C [Example 169, (1R,3S)-3-((7-cyano-2-(3′-(3-(((R)-3-hydroxypyrrolidin-1-yl)methyl)-1,7-naphthyridin-8-ylamino)-2,2′-dimethylbiphenyl-3-yl)benzo[d]oxazol-5-yl)methylamino)cyclopentanecarboxylic acid]
Cc1c(Nc2nccc3cc(CN[C@@H](C)CO)cnc23)cccc1-c1cccc(-c2nc3cc(CN4CC[C@@H](C(=O)O)C4)cc(C#N)c3o2)c1C [Example 257, (R)-1-((7-cyano-2-(3′-(3-(((S)-1-hydroxypropan-2-ylamino)methyl)-1,7-naphthyridin-8-ylamino)-2,2′-dimethylbiphenyl-3-yl)benzo[d]oxazol-5-yl)methyl)pyrrolidine-3-carboxylic acid]
Cc1c(-c2nc3cc(CN4CC[C@H](C(=O)O)C4)cc(C#N)c3o2)cccc1-c1cccc(NC(=O)c2nc3c(n2C)CCN(CCO)C3)c1Cl [Example 93, (S)-1-((2-(2′-chloro-3′-(5-(2-hydroxyethyl)-1-methyl-4,5,6,7-tetrahydro-1H-imidazo[4,5-c]pyridine-2-carboxamido)-2-methylbiphenyl-3-yl)-7-cyanobenzo[d]oxazol-5-yl)methyl)pyrrolidine-3-carboxylic acid]
Cc1c(-c2nc3cc(CN4CC[C@@](C)(C(=O)O)C4)cc(C#N)c3o2)cccc1-c1cccc(-c2nc3c(s2)CN(C(=O)CN2CC[C@@H](O)C2)C3)c1C [Example 222]
Cc1c(-c2nc3cc(CN4CC5(CC(C(=O)O)C5)C4)cc(C#N)c3o2)cccc1-c1cccc(-c2nc3c(s2)CN(C(=O)CN2CC[C@@H](O)C2)C3)c1C [Example 234, 2-((7-cyano-2-(3′-(5-(2-((R)-3-hydroxypyrrolidin-1-yl)acetyl)-5,6-dihydro-4H-pyrrolo[3,4-d]thiazol-2-yl)-2,2′-dimethylbiphenyl-3-yl)benzo[d]oxazol-5-yl)methyl)-2-azaspiro[3.3]heptane-6-carboxylic acid]
Cc1c(-c2nc3cc(CN4CC[C@@H](C(=O)O)C4)cc(Cl)c3o2)cccc1-c1cccc(-c2nc3c(s2)CN(C(C)CO)CC3)c1C (stereo partly drawn) [Example 62, (3R)-1-((7-chloro-2-(3′-(5-(1-hydroxypropan-2-yl)-4,5,6,7-tetrahydrothiazolo[5,4-c]pyridin-2-yl)-2,2′-dimethyl-[1,1′-biphenyl]-3-yl)benzo[d]oxazol-5-yl)methyl)pyrrolidine-3-carboxylic acid]
Cc1c(-c2nc3cc(CN4CC[C@@H](O)C4)cc(C#N)c3o2)cccc1-c1cccc(NC(=O)c2nc3c(n2C)CCN(C2CCCC(C(=O)O)CC2)C3)c1Cl (stereo partly drawn) [Example 264, 4-(2-(2-chloro-3′-(7-cyano-5-(((R)-3-hydroxypyrrolidin-1-yl)methyl)benzo[d]oxazol-2-yl)-2′-methylbiphenyl-3-ylcarbamoyl)-1-methyl-6,7-dihydro-1H-imidazo[4,5-c]pyridin-5(4H)-yl)cycloheptane carboxylic acid]
CCN(C)CC(=O)N1Cc2nc(-c3cccc(-c4cccc(-c5nc6cc(CN7CC8(C(=O)O)CC7C8)cc(C#N)c6o5)c4C)c3C)oc2C1 [Example 242, 2-((7-cyano-2-(3′-(5-(N-ethyl-N-methylglycyl)-5,6-dihydro-4H-pyrrolo[3,4-d]oxazol-2-yl)-2,2′-dimethyl-[1,1′-biphenyl]-3-yl)benzo[d]oxazol-5-yl)methyl)-2-azabicyclo[2.1.1]hexane-4-carboxylic acid]
Cc1c(Nc2nccc3cc(CN4CC[C@](C)(O)C4)cnc23)cccc1-c1cccc(-c2nc3cc(CN4CC[C@@](C)(C(=O)O)C4)cc(C#N)c3o2)c1C [Example 200, (R)-1-((7-cyano-2-(3′-(3-(((S)-3-hydroxy-3-methylpyrrolidin-1-yl)methyl)-1,7-naphthyridin-8-ylamino)-2,2′-dimethylbiphenyl-3-yl)benzo[d]oxazol-5-yl)methyl)-3-methylpyrrolidine-3-carboxylic acid]
Cc1c(-c2nc3cc(CN4CC[C@@H](O)C4)cc(C#N)c3o2)cccc1-c1cccc(NC(=O)c2nc3c(n2C)CCN(CC2CCC(C)(C(=O)O)CC2)C3)c1Cl (single isomer, unassigned; peak 1) [Example 268]
Cc1c(Nc2nccc3cc(CNC[C@@H](C)O)cnc23)cccc1-c1cccc(-c2nc3cc(CN4CCC(C(=O)O)CC4)cc(C#N)c3o2)c1C [Example 203, (R)-1-((7-cyano-2-(3′-(3-((2-hydroxypropylamino)methyl)-1,7-naphthyridin-8-ylamino)-2,2′-dimethylbiphenyl-3-yl)benzo[d]oxazol-5-yl)methyl)piperidine-4-carboxylic acid]
Cc1c(-c2nc3cc(CN4CC[C@@](C)(C(=O)O)C4)cc(C#N)c3o2)cccc1-c1cccc(-c2nc3c(s2)CN(C(=O)CN(C)C)C3)c1C [Example 109, (R)-1-((7-cyano-2-(3′-(5-(2-(dimethylamino)acetyl)-5,6-dihydro-4H-pyrrolo[3,4-d]thiazol-2-yl)-2,2′-dimethylbiphenyl-3-yl)benzo[d]oxazol-5-yl)methyl)-3-methylpyrrolidine-3-carboxylic acid]
Cc1c(-c2nc3cc(CN4CC[C@@H](C(=O)O)C4)cc(C#N)c3o2)cccc1-c1cccc(-c2nc3c(s2)CN(C(=O)CN2CC[C@](C)(O)C2)C3)c1C [Example 115, (R)-1-((7-cyano-2-(3′-(5-(2-((S)-3-hydroxy-3-methylpyrrolidin-1-yl)acetyl)-5,6-dihydro-4H-pyrrolo[3,4-d]thiazol-2-yl)-2,2′-dimethylbiphenyl-3-yl)benzo[d]oxazol-5-yl)methyl)pyrrolidine-3-carboxylic acid]
Cc1c(-c2nc3cc(CN4CC[C@@H](C(=O)O)C4)cc(C#N)c3o2)cccc1-c1cccc(-n2cc3c(n2)CN(C)CC3)c1Cl [Example 57, (R)-1-((2-(2′-chloro-2-methyl-3′-(6-methyl-4,5,6,7-tetrahydro-2H-pyrazolo[3,4-c]pyridin-2-yl)biphenyl-3-yl)-7-cyanobenzo[d]oxazol-5-yl)methyl)pyrrolidine-3-carboxylic acid]
Cc1c(NC(=O)c2nc3c(n2C)CCN(C)C3)cccc1-c1cccc(-c2nc3cc(CN4CC[C@@H](C(=O)O)C4)cc(C#N)c3o2)c1C [Example 80, (R)-1-((7-cyano-2-(3′-(1,5-dimethyl-4,5,6,7-tetrahydro-1H-imidazo[4,5-c]pyridine-2-carboxamido)-2,2′-dimethylbiphenyl-3-yl)benzo[d]oxazol-5-yl)methyl)pyrrolidine-3-carboxylic acid]
